From patent US20140011799A1 (Bristol-Myers Squibb Company, priority 2012, published 2014)
Values joined by “and” are separate entries in the source; they are usually repeats but may differ in a detail not shown here. Equal entries are not always repeated.

Assays:
hepatic lipase (HL) = target: T1, hepatic lipase (HL) (Homo sapiens, UniProt P11150); assay: Hepatic lipase (HL) enzymatic assay, fluorescent substrate A10070 in DMPG vesicles; type: biochemical; settings: HL partially purified from conditioned media of COS cells; compound preincubated 30 min at 37° C; read-out: HL IC50
T1 construct: made in house; host or cells: COS cells (conditioned medium, partially purified)
T1 sequence (P11150 23-499): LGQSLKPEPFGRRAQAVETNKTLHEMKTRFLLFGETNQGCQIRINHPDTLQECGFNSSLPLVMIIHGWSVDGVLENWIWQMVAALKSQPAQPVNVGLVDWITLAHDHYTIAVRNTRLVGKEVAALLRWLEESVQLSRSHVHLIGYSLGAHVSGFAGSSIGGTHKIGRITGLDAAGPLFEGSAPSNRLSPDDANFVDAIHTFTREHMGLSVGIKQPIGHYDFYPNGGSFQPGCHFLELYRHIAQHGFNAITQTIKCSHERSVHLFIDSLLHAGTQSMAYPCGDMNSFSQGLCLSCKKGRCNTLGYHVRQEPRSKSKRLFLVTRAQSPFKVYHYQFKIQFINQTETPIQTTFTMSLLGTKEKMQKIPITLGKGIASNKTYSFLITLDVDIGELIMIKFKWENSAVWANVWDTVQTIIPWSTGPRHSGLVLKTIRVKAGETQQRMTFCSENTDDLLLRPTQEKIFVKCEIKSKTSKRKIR
Outline: (§1)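 Vesicles prepared: A10070 dried with DMPG, resuspended in HEPES pH 8.0/NaCl/EDTA, sonicated on ice. Enzyme incubated with compound 30 min at 37° C. Reaction started with 1:10 diluted vesicles. Fluorescence (490/530 nm) followed 60 min; slope from 300–900 secs gives rate.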

Endothelial lipase (EL) = target: T2, Endothelial lipase (EL) (Homo sapiens, UniProt Q9Y5X9); assay: Endothelial lipase (EL) enzymatic assay, fluorescent substrate A10070 in DMPG vesicles; type: biochemical; settings: EL from conditioned media of HT-1080 cells; compound preincubated 30 min at 37° C; read-out: EL IC50
T2 construct: HT-1080 cells that were transformed using RAGE technology (Athersys) to overexpress endogenous EL; endogenous in cells; conditioned medium used
T2 sequence (Q9Y5X9 21-500): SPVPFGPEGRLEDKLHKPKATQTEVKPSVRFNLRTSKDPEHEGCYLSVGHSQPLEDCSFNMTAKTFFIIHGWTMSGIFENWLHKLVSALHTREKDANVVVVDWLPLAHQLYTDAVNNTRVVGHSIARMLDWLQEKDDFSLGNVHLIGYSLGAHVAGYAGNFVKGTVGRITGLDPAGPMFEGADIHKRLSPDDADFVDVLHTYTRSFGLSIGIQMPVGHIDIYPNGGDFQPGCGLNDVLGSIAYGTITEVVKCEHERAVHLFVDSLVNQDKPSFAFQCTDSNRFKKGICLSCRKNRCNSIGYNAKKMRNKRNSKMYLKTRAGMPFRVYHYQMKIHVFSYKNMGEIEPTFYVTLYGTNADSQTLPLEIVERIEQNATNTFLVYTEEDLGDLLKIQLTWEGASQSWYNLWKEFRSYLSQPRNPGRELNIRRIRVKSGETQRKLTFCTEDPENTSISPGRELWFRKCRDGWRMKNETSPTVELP
Outline: as §1

Which IC50 (hepatic lipase (HL)) does the source give for `CN1CCN(C(=O)c2cccc(-c3ccc4nc(C(c5nnc(CNS(N)(=O)=O)o5)S(=O)(=O)Cc5ccccc5)sc4c3)c2)CC1` (stereo not drawn) [Example 198, N-((5-((benzylsulfonyl)(6-(3-((4-methyl-1-piperazinyl)carbonyl)phenyl)-1,3-benzothiazol-2-yl)methyl)-1,3,4-oxadiazol-2-yl)methyl)sulfamide] here?
The IC50 was 9180 nM.

And the IC50 (Endothelial lipase (EL))?
The IC50 was < 10 nM.

How did the IC50 (hepatic lipase (HL)) turn out when `NS(=O)(=O)NCc1nnc(C(c2nc3ccc(-c4ccc(C(F)(F)F)cc4)cc3s2)S(=O)(=O)Cc2ccccc2)o1` (stereo not drawn) [Example 128, N-((5-((benzylsulfonyl)(6-(4-(trifluoromethyl)phenyl)-1,3-benzothiazol-2-yl)methyl)-1,3,4-oxadiazol-2-yl)methyl) sulfamide] was run?
The IC50 was < 10 nM.

And the IC50 (Endothelial lipase (EL))?
Its IC50 is < 10 nM.

Which results are given for `CS(=O)(=O)C(c1nnc(CNS(N)(=O)=O)o1)c1nc2ccc(-c3cccc(C(=O)N4CC(F)(F)C4)c3)cc2s1` (stereo not drawn) [Example 251, N-{[5-({6-[3-(3,3-difluoroazetidine-1-carbonyl)phenyl]-1,3-benzothiazol-2-yl} (methanesulfonyl)methyl)-1,3,4-oxadiazol-2-yl]methyl} aminosulfonamide]?
IC50 (hepatic lipase (HL)): 21 nM; IC50 (Endothelial lipase (EL)): 9 nM

For `COc1cc(-c2ccc3nc(C(c4nnc(CNS(N)(=O)=O)o4)S(C)(=O)=O)sc3c2)ccn1` (stereo not drawn) [Example 131, N-((5-((6-(2-methoxy-4-pyridinyl)-1,3-benzothiazol-2-yl)(methylsulfonyl)methyl)-1,3,4-oxadiazol-2-yl)methyl)sulfamide], which IC50 (hepatic lipase (HL)) is on record?
The IC50 was 102 nM.

What about the IC50 (Endothelial lipase (EL)) of the same compound?
Its IC50 is < 10 nM.

For `COCCNC(=O)c1cccc(-c2ccc3nc(C(c4nnc(CC5(C)NC(=O)NC5=O)o4)S(C)(=O)=O)sc3c2)c1` (stereo not drawn) [Example 205, 3-{2-[methanesulfonyl({5-[(4-methyl-2,5-dioxoimidazolidin-4-yl)methyl]-1,3,4-oxadiazol-2-yl})methyl]-1,3-benzothiazol-6-yl}-N-(2-methoxyethyl)benzamide], which IC50 (hepatic lipase (HL)) is on record?
Its IC50 is 449 nM.

And the IC50 (Endothelial lipase (EL))?
The IC50 was 18 nM.

With `CC1(NC(=O)c2cccc(-c3ccc4nc(C(c5nnc(CC6(C)NC(=O)NC6=O)o5)S(C)(=O)=O)sc4c3)c2)CC1` (stereo not drawn) [Example 224, 3-{2-[methanesulfonyl({5-[(4-methyl-2,5-dioxo-imidazolidin-4-yl)methyl]-1,3,4-oxadiazol-2-yl})methyl]-1,3-benzothiazol-6-yl}-N-(1-methylcyclopropyl) benzamide] as the compound, how does the IC50 (hepatic lipase (HL)) read?
The IC50 was 76 nM.

And the IC50 (Endothelial lipase (EL))?
Its IC50 is 11 nM.

`Cn1cc(-c2cc3sc(C(c4nnc(CNS(N)(=O)=O)o4)S(=O)(=O)Cc4ccccc4)nc3cc2F)cn1` (stereo not drawn) [Example 158, N-((5-((benzylsulfonyl)(5-fluoro-6-(1-methyl-1H-pyrazol-4-yl)-1,3-benzothiazol-2-yl)methyl)-1,3,4-oxadiazol-2-yl)methyl) sulfamide] was tested. Which IC50 (hepatic lipase (HL)) did it give?
The IC50 was 21 nM.

What about the IC50 (Endothelial lipase (EL)) of the same compound?
The IC50 was < 10 nM.

For `CC(O)CS(=O)(=O)C(c1nnc(CNS(N)(=O)=O)o1)c1nc2ccc(-c3ccccc3)cc2s1` (stereo not drawn) [Example 170, N-((5-(((2-Hydroxypropyl)sulfonyl)(6-phenyl-1,3-benzothiazol-2-yl)methyl)-1,3,4-oxadiazol-2-yl)methyl)sulfamide], which IC50 (hepatic lipase (HL)) is on record?
Its IC50 is < 10 nM.

What about the IC50 (Endothelial lipase (EL)) of the same compound?
Its IC50 is < 10 nM.

`CC(C)(C)OC(=O)Cc1nnc(C(c2nc3ccc(-c4ccc(C(=O)N5CCOCC5)cc4)cc3s2)S(=O)(=O)Cc2ccccc2)o1` (stereo not drawn) [Example 108, tert-butyl (5-((benzylsulfonyl)(6-(4-(4-morpholinylcarbonyl)phenyl)-1,3-benzothiazol-2-yl)methyl)-1,3,4-oxadiazol-2-yl)acetate] was tested. Which IC50 (hepatic lipase (HL)) did it give?
The IC50 was 14 nM.

What about the IC50 (Endothelial lipase (EL)) of the same compound?
Its IC50 is 24 nM.

`COCc1ccc(-c2ccc3nc(C(c4nnc(CNS(N)(=O)=O)o4)S(=O)(=O)Cc4cc(C(F)(F)F)cc(C(F)(F)F)c4)sc3c2)cc1` (stereo not drawn) [Example 234, N-[(5-{[3,5-bis(trifluoromethyl)phenyl]methanesulfonyl({6-[4-(methoxymethyl)phenyl]-1,3-benzothiazol-2-yl})methyl}-1,3,4-oxadiazol-2-yl)methyl]aminosulfonamide] was tested. Which IC50 (hepatic lipase (HL)) did it give?
The IC50 was 17 nM.

What about the IC50 (Endothelial lipase (EL)) of the same compound?
Its IC50 is 4 nM.

Which IC50 (hepatic lipase (HL)) does the source give for `CS(=O)(=O)C(c1nnc(CC2SC(=O)NC2=O)o1)c1nc2ccc(C3=CCOCC3)cc2s1` (stereo not drawn) [Example 99, 5-((5-((6-(3,6-dihydro-2H-pyran-4-yl)-1,3-benzothiazol-2-yl)(methylsulfonyl)methyl)-1,3,4-oxadiazol-2-yl)methyl)-1,3-thiazolidine-2,4-dione] here?
Its IC50 is 142 nM.

What about the IC50 (Endothelial lipase (EL)) of the same compound?
Its IC50 is < 10 nM.

What does the source list for `Cc1noc(C)c1-c1ccc2nc(C(c3nnc(CNS(N)(=O)=O)o3)S(C)(=O)=O)sc2c1` (stereo not drawn) [Example 117, N-[(5-{[6-(3,5-dimethyl-1,2-oxazol-4-yl)-1,3-benzothiazol-2-yl](methylsulfonyl)methyl}-1,3,4-oxadiazol-2-yl)methyl] sulfuric diamide]?
IC50 (hepatic lipase (HL)): 230 nM; IC50 (Endothelial lipase (EL)): 24 nM

Which results are given for `CS(=O)(=O)C(c1nnc(CS(N)(=O)=O)o1)c1nc2c(F)cc(-c3ccccc3)cc2s1` (stereo not drawn) [Example 163, 1-(5-((4-fluoro-6-phenyl-1,3-benzothiazol-2-yl)(methylsulfonyl)methyl)-1,3,4-oxadiazol-2-yl)methanesulfonamide]?
IC50 (hepatic lipase (HL)): < 10 nM; IC50 (Endothelial lipase (EL)): < 10 nM

With `CC(C)(C)CNC(=O)c1cccc(-c2ccc3nc(C(c4nnc(CNS(N)(=O)=O)o4)S(C)(=O)=O)sc3c2)c1` (stereo not drawn) [Example 260, N-(2,2-dimethylpropyl)-3-{2-[methanesulfonyl({5-[(sulfamoylamino)methyl]-1,3,4-oxadiazol-2-yl})methyl]-1,3-benzothiazol-6-yl}benzamide] as the compound, how does the IC50 (hepatic lipase (HL)) read?
The IC50 was 7 nM.

What about the IC50 (Endothelial lipase (EL)) of the same compound?
Its IC50 is 3 nM.

Which results are given for `CN(C)C(=O)c1ccc(-c2ccc3nc(C(c4nnc(CNS(N)(=O)=O)o4)S(=O)(=O)Cc4ccccc4)sc3c2)cc1Cl` (stereo not drawn) [Example 146, 4-(2-((benzylsulfonyl)(5-((sulfamoylamino)methyl)-1,3,4-oxadiazol-2-yl)methyl)-1,3-benzothiazol-6-yl)-2-chloro-N,N-dimethylbenzamide]?
IC50 (hepatic lipase (HL)): 391 nM; IC50 (Endothelial lipase (EL)): < 10 nM

Which results are given for `CN1CCN(C(=O)c2cccc(-c3ccc4nc(C(c5nnc(CNS(N)(=O)=O)o5)S(=O)(=O)CC5CC5)sc4c3)c2)CC1` (stereo not drawn) [Example 197, N-((5-(((cyclopropylmethyl)sulfonyl)(6-(3-((4-methyl-1-piperazinyl)carbonyl)phenyl)-1,3-benzothiazol-2-yl)methyl)-1,3,4-oxadiazol-2-yl)methyl)sulfamide]?
IC50 (hepatic lipase (HL)): 2570 nM; IC50 (Endothelial lipase (EL)): < 10 nM

With `CS(=O)(=O)C(c1nnc(CC2SC(=O)NC2=O)o1)c1nc2ccc(-c3cnc(OCc4ccccc4)nc3)cc2s1` (stereo not drawn) [Example 104, 5-((5-((6-(2-(benzyloxy)-5-pyrimidinyl)-1,3-benzothiazol-2-yl)(methylsulfonyl)methyl)-1,3,4-oxadiazol-2-yl)methyl)-1,3-thiazolidine-2,4-dione] as the compound, how does the IC50 (hepatic lipase (HL)) read?
The IC50 was < 10 nM and 11 nM.

What about the IC50 (Endothelial lipase (EL)) of the same compound?
The IC50 was < 10 nM.

`CS(=O)(=O)C(c1nnc(CNS(N)(=O)=O)o1)c1nc2ccc(-c3cccc(C(=O)N4CC[C@H](O)C4)c3)cc2s1` (stereo partly drawn) [Example 266, N-({5-[(6-{3-[(3S)-3-hydroxypyrrolidine-1-carbonyl]phenyl}-1,3-benzothiazol-2-yl) (methanesulfonyl)methyl]-1,3,4-oxadiazol-2-yl}methyl)aminosulfonamide] was tested. Which IC50 (hepatic lipase (HL)) did it give?
The IC50 was 94 nM.

And the IC50 (Endothelial lipase (EL))?
The IC50 was 13 nM.

Which results are given for `CC1(Cc2nnc(C(c3nc4ccc(-c5cccc(C(=O)N6CC[C@@H](F)C6)c5)cc4s3)S(C)(=O)=O)o2)NC(=O)NC1=O` (stereo partly drawn) [Example 232, 5-({5-[(6-{3-[(3R)-3-fluoropyrrolidine-1-carbonyl]phenyl}-1,3-benzothiazol-2-yl) (methanesulfonyl)methyl]-1,3,4-oxadiazol-2-yl}methyl)-5-methyl-imidazolidine-2,4-dione]?
IC50 (hepatic lipase (HL)): 54 nM; IC50 (Endothelial lipase (EL)): 1 nM

Which results are given for `CC1(Cc2nnc(C(c3nc4ccc(-c5cccc(C(=O)N6CC(F)C6)c5)cc4s3)S(C)(=O)=O)o2)NC(=O)NC1=O` (stereo not drawn) [Example 206, 5-{[5-({6-[3-(3-fluoroazetidine-1-carbonyl)phenyl]-1,3-benzothiazol-2-yl} (methanesulfonyl)methyl)-1,3,4-oxadiazol-2-yl]methyl}-5-methyl-imidazolidine-2,4-dione]?
IC50 (hepatic lipase (HL)): 125 nM; IC50 (Endothelial lipase (EL)): 16 nM

Which IC50 (hepatic lipase (HL)) does the source give for `NCCS(=O)(=O)C(c1nnc(CNS(N)(=O)=O)o1)c1nc2ccc(-c3ccccc3)cc2s1` (stereo not drawn) [Example 187, N-[(5-{[(2-aminoethyl)sulfonyl](6-phenyl-1,3-benzothiazol-2-yl)methyl}-1,3,4-oxadiazol-2-yl)methyl] sulfuric diamide] here?
The IC50 was 12 nM.

What about the IC50 (Endothelial lipase (EL)) of the same compound?
The IC50 was < 10 nM.
